Laboratory results from US20210284638A1 (Saint Louis University, priority 2018, published 2021).

Tests used:
[1] = target: T1, Recombinant human integrin αVβ5 (Homo sapiens, UniProt P06756+P18084); assay: Solid Phase Receptor Assay (SPRA) for αVβ5 function; format: binding; settings: plate-bound human vitronectin
T1 construct: purchased R&D Systems 2528-AV
Protocol: D. Solid Phase Receptor Assay (SPRA) for αVβ5 Function
Wells were washed 3 times with 150 μL TBS+ and then 150 μL of blocking buffer (TBS+ with 1% bovine serum albumin, Sigma A7906) was added. The plate was incubated for 1 hr at 37° C. and then washed 3× with TBS+ buffer. […] Compounds were diluted to 20 μM and then 1 μL was added to each well of the plate according to a standard template with each sample repeated in triplicate. After incubation for two hours at room temperature, the plate was washed 3× with 150 μL of TBS+ buffer. To each well, 50 μl of biotinylated anti-αV antibody (R&D Systems, BAF1219) at 0.5 μg/mL in TBS+/0.1% BSA at 0.5 μg/mL were added and the plate covered and incubated for 1 hr at room temperature. After washing the plate 3× with 150 μL of TBS+ buffer, 50 μL of streptavidin-conjugated horseradish peroxidase (R&D Systems, DY998) diluted in TBS+ blocking buffer were added to the wells and the plate incubated for 20 min at room temperature. The plate was washed 3× with TBS+ buffer followed by 50 μL of TMB substrate (Sigma T4444) added to each well in the dark and the plate incubated for 5 min at room temperature. 25 μL of 1.0 M phosphoric acid was added as a stop solution and the plates were read at 450 nm using a Spectramax plate reader.

[2] = target: T2, Recombinant human integrin αVβ3 (Homo sapiens, UniProt P05106+P06756); assay: Solid Phase Receptor Assay for αVβ3 function; format: binding; settings: plate-bound human vitronectin; read-out: αVβ3 SPRA IC50
T2 construct: purchased R&D Systems 3050-AV
Protocol: C. […] Wells were washed 3 times with 150 μL TBS+ and then 150 μL of blocking buffer (TBS+ with 1% bovine serum albumin, Sigma A7906) was added. The plate was incubated for 1 hr at 37° C. and then washed 3× with TBS+ buffer. […] Compounds were diluted to 20 μM and then 1 μL was added to each well of the plate according to a standard template with each sample repeated in triplicate. After incubation for two hours at room temperature, the plate was washed 3× with 150 μL of TBS+ buffer. To each well, 50 μL of biotinylated anti-αV antibody (R&D Systems, BAF1219) at 0.5 μg/mL in TBS+/0.1% BSA were added and the plate covered and incubated for 1 hr at room temperature. After washing the plate 3× with 150 μL of TBS+ buffer, 50 μL of streptavidin-conjugated horseradish peroxidase (R&D Systems, DY998) diluted in TBS+ blocking buffer were added to the wells and the plate incubated for 20 min at room temperature. The plate was washed 3× with TBS+ buffer followed by 50 μL of TMB substrate (Sigma, T4444) added to each well in the dark and the plate was incubated for 25 min at room temperature. 25 μL of 1.0 M phosphoric acid was added as a stop solution and the plates were read at 450 nm using a Spectramax plate reader.

T1 sequence (P06756 31-992 limits assumed): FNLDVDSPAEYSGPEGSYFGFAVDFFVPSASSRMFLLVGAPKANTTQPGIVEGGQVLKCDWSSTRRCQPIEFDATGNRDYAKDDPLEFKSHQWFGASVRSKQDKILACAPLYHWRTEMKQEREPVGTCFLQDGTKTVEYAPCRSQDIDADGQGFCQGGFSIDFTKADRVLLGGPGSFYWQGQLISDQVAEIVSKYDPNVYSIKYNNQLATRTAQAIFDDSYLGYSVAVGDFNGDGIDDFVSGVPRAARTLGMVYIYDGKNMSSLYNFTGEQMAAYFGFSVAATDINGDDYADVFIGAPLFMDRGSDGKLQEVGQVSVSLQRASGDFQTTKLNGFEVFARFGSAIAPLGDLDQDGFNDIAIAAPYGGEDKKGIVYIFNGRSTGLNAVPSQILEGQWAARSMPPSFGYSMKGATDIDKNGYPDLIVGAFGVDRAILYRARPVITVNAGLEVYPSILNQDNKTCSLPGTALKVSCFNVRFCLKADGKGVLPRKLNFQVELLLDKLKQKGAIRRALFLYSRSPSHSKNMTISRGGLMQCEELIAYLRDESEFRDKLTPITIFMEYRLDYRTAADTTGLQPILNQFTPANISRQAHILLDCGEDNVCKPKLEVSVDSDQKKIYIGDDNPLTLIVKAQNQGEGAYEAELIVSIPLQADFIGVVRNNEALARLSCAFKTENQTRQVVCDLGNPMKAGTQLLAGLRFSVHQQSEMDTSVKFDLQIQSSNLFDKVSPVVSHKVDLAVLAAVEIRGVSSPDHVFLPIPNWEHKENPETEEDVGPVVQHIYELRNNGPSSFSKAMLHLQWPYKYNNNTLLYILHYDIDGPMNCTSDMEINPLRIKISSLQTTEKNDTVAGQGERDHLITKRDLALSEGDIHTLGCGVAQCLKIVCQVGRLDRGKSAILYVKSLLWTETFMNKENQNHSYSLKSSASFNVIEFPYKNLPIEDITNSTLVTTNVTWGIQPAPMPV
T1 sequence (P18084 24-719 limits assumed): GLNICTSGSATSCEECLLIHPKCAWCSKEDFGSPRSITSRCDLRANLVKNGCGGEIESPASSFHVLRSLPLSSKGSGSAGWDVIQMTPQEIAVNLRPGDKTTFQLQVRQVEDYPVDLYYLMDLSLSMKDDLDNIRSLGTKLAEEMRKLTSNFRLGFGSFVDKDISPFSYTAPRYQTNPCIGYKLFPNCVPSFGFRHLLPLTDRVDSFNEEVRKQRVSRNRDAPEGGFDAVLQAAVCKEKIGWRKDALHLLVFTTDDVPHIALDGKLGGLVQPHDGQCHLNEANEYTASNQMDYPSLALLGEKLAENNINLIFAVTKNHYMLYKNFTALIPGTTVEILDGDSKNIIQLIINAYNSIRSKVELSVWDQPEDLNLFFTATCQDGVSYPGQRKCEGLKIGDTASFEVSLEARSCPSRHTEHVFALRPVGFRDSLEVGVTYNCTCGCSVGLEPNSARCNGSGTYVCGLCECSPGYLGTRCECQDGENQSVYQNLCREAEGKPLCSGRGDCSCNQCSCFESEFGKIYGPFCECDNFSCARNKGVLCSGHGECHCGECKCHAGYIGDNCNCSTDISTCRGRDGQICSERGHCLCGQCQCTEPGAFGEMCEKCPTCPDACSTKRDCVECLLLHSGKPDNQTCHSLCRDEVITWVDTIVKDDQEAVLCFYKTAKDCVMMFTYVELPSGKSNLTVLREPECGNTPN
T2 sequence (P06756 31-992 limits assumed): as the sequence (P06756 31-992 limits assumed) above
T2 sequence (P05106 27-718 limits assumed): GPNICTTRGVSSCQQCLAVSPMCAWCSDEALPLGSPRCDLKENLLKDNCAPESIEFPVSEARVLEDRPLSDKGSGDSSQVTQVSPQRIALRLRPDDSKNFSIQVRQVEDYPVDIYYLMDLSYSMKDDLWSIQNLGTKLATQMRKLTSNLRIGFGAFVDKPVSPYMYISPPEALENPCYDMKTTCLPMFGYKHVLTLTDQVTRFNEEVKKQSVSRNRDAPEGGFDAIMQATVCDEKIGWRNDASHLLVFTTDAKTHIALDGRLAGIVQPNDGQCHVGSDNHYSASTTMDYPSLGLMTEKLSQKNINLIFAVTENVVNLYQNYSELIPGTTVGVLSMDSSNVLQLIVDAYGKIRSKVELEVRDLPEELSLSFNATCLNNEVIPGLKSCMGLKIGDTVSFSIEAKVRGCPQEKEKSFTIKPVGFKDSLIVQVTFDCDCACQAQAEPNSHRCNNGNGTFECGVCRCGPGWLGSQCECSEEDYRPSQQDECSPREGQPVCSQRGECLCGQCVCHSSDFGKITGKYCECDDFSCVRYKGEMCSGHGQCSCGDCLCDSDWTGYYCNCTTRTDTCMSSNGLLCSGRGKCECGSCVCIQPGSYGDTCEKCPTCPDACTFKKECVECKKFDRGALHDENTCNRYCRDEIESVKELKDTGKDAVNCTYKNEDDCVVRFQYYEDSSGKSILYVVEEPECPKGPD

| SMILES | IC50 [1] | IC50 [2] |
| --- | --- | --- |
| O=C(O)CC(Cc1cc(OCCc2ccc3c(n2)NCCC3)[nH]n1)c1cccc(F)c1 (stereo not shown) [CC2, reference compound] | 0.2 nM | 3.1 nM |
| COCC1(c2cc(C(CC(=O)O)Cc3cc(OCCc4ccc5c(n4)NCCC5)n(C)n3)cc(C(C)(C)C)c2)CCOCC1 (stereo not shown) [Example 1, 3-[3-tert-butyl-5-[4-(methoxymethyl)tetrahydropyran-4-yl]phenyl]-4-[1-methyl-5-[2-(5,6,7,8-tetrahydro-1,8-naphthyridin-2-yl)ethoxy]pyrazol-3-yl]butanoic acid] | 44 nM | 48 nM |
| CC(C)c1cc(C#N)cc(C(CC(=O)O)Cc2cc(OCCc3ccc4c(n3)NCCC4)n(C)n2)c1 (stereo not shown) [Example 2, 3-(3-cyano-5-isopropylphenyl)-4-(1-methyl-5-(2-(5,6,7,8-tetrahydro-1,8-naphthyridin-2-yl)ethoxy)-1H-pyrazol-3-yl)butanoic acid trifluoroacetic acid] | 0.3 nM | 6 nM |
| Cn1nc(CC(CC(=O)O)c2cc(Br)cc(S(F)(F)(F)(F)F)c2)cc1OCCc1ccc2c(n1)NCCC2 (stereo not shown) [Example 3, 3-[3-bromo-5-(pentafluoro-sulfanyl)phenyl]-4-[1-methyl-5-[2-(5,6,7,8-tetrahydro-1,8-naphthyridin-2-yl)ethoxy]pyrazol-3-yl]butanoic acid] | 2 nM | 8 nM |
| CC(C)c1cc(C(C)C)cc(C(CC(=O)O)Cc2cc(OCCc3ccc4c(n3)NCCC4)n(C)n2)c1 (stereo not shown) [Example 4, 3-(3,5-diisopropylphenyl)-4-[1-methyl-5-[2-(5,6,7,8-tetrahydro-1,8-naphthyridin-2-yl)ethoxy]pyrazol-3-yl]butanoic acid] | 6 nM | 15 nM |
| Cn1nc(CC(CC(=O)O)c2cc(C(C)(C)C)cc(C(C)(C)C(F)(F)F)c2)cc1OCCc1ccc2c(n1)NCCC2 (stereo not shown) [Example 5, 3-(3-(tert-butyl)-5-(1,1,1-trifluoro-2-methylpropan-2-yl)phenyl)-4-(1-methyl-5-(2-(5,6,7,8-tetrahydro-1,8-naphthyridin-2-yl)ethoxy)-1H-pyrazol-3-yl) butanoic acid] | 160 nM | 140 nM |
| Cn1nc(CC(CC(=O)O)c2cc(C(C)(C)C)cc(C3(C(F)F)CC3)c2)cc1OCCc1ccc2c(n1)NCCC2 (stereo not shown) [Example 6, 3-(3-(tert-butyl)-5-(1-(difluoromethyl)cyclopropyl)phenyl)-4-(1-methyl-5-(2-(5,6,7,8-tetrahydro-1,8-naphthyridin-2-yl)ethoxy)-1H-pyrazol-3-yl)butanoic acid] | 54 nM | 120 nM |
| Cn1nc(CC(CC(=O)O)c2cc(C(C)(C)C)cc(C(C)(C)CO)c2)cc1OCCc1ccc2c(n1)NCCC2 (stereo not shown) [Example 7, 3-[3-tert-butyl-5-(2-hydroxy-1,1-dimethyl-ethyl)phenyl]-4-[1-methyl-5-[2-(5,6,7,8-tetrahydro-1,8-naphthyridin-2-yl)ethoxy]pyrazol-3-yl]butanoic acid] | 27 nM | 17 nM |
| Cn1nc(CC(CC(=O)O)c2cc(Cl)cc(C(C)(C)C#N)c2)cc1OCCc1ccc2c(n1)NCCC2 (stereo not shown) [Example 8, 3-(3-chloro-5-(2-cyanopropan-2-yl)phenyl)-4-(1-methyl-5-(2-(5,6,7,8-tetrahydro-1,8-naphthyridin-2-yl)ethoxy)-1H-pyrazol-3-yl)butanoic acid] | 0.3 nM | 3 nM |
| Cn1nc(CC(CC(=O)O)c2cc(C(C)(C)C)cc(C(C)(C)C#N)c2)cc1OCCc1ccc2c(n1)NCCC2 (stereo not shown) [Example 9, 3-[3-tert-butyl-5-(1-cyano-1-methyl-ethyl)phenyl]-4-[1-methyl-5-[2-(5,6,7,8-tetrahydro-1,8-naphthyridin-2-yl)ethoxy]pyrazol-3-yl]butanoic acid] | 32 nM | 38 nM |
| COc1c(C(C)(C)C)cc(C(CC(=O)O)Cc2cc(OCCc3ccc4c(n3)NCCC4)n(C)n2)cc1C(C)(C)C (stereo not shown) [Example 10, 3-(3,5-di-tert-butyl-4-methoxyphenyl)-4-(1-methyl-5-(2-(5,6,7,8-tetrahydro-1,8-naphthyridin-2-yl)ethoxy)-1H-pyrazol-3-yl)butanoic acid] | 84 nM | 410 nM |
| COc1c(C(CC(=O)O)Cc2cc(OCCc3ccc4c(n3)NCCC4)n(C)n2)cc(C(C)(C)C)cc1C(C)(C)C (stereo not shown) [Example 11, 3-(3,5-di-tert-butyl-2-methoxyphenyl)-4-(1-methyl-5-(2-(5,6,7,8-tetrahydro-1,8-naphthyridin-2-yl)ethoxy)-1H-pyrazol-3-yl)butanoic acid] | 17000 nM | 13000 nM |
| COc1c(Br)cc(C(C)(C)C)cc1C(CC(=O)O)Cc1cc(OCCc2ccc3c(n2)NCCC3)n(C)n1 (stereo not shown) [Example 12, 3-(3-bromo-5-(tert-butyl)-2-methoxyphenyl)-4-(1-methyl-5-(2-(5,6,7,8-tetrahydro-1,8-naphthyridin-2-yl)ethoxy)-1H-pyrazol-3-yl)butanoic acid] | 160 nM | 90 nM |
| COc1cc(C(CC(=O)O)Cc2cc(OCCc3ccc4c(n3)NCCC4)n(C)n2)cc(C23CC4CC(CC(C4)C2)C3)c1OCc1ccccc1 (stereo not shown) [Example 13, 3-[3-(1-adamantyl)-4-benzyloxy-5-methoxy-phenyl]-4-[1-methyl-5-[2-(5,6,7,8-tetrahydro-1,8-naphthyridin-2-yl)ethoxy]pyrazol-3-yl]butanoic acid] | 140 nM | 31 nM |
| COc1cc(C(CC(=O)O)Cc2cc(OCCc3ccc4c(n3)NCCC4)n(C)n2)cc(C23CC4CC(CC(C4)C2)C3)c1OC (stereo not shown) [Example 14, 3-[3-(1-adamantyl)-4,5-dimethoxy-phenyl]-4-[1-methyl-5-[2-(5,6,7,8-tetrahydro-1,8-naphthyridin-2-yl)ethoxy]pyrazol-3-yl]butanoic acid] | 9 nM | 9 nM |
| Cn1nc(CC(CC(=O)O)c2cc3c(c(C(C)(C)C)c2)OCO3)cc1OCCc1ccc2c(n1)NCCC2 (stereo not shown) [Example 15] | 0.2 nM | 9 nM |
| Cn1nc(CC(CC(=O)O)c2cc3c(c(C(C)(C)C)c2)OCCO3)cc1OCCc1ccc2c(n1)NCCC2 (stereo not shown) [Example 16, 3-(8-(tert-butyl)-2,3-dihydrobenzo[b][1,4]dioxin-6-yl)-4-(1-methyl −5-(2-(5,6,7,8-tetrahydro-1,8-naphthyridin-2-yl)ethoxy)-1H-pyrazol-3-yl) butanoic acid] | 0.7 nM | 7 nM |
| Cn1nc(CC(CC(=O)O)c2cc(C(C)(C)C)ccc2Br)cc1OCCc1ccc2c(n1)NCCC2 (stereo not shown) [Example 17, 3-(2-bromo-5-(tert-butyl)phenyl)-4-(1-methyl-5-(2-(5,6,7,8-tetrahydro-1,8-naphthyridin-2-yl)ethoxy)-1H-pyrazol-3-yl)butanoic acid] | 230 nM | 930 nM |
| Cn1nc(CC(CC(=O)O)c2cc(C(C)(C)C)ccc2C#N)cc1OCCc1ccc2c(n1)NCCC2 (stereo not shown) [Example 18, 3-(5-(tert-butyl)-2-cyanophenyl)-4-(1-methyl-5-(2-(5,6,7,8-tetrahydro-1,8-naphthyridin-2-yl)ethoxy)-1H-pyrazol-3-yl)butanoic acid] | 4 nM | 56 nM |
| Cn1nc(CC(CC(=O)O)c2cc(C(C)(C)C)ccc2F)cc1OCCc1ccc2c(n1)NCCC2 (stereo not shown) [Example 19, 3-(5-(tert-butyl)-2-fluorophenyl)-4-(1-methyl-5-(2-(5,6,7,8-tetrahydro-1,8-naphthyridin-2-yl)ethoxy)-1H-pyrazol-3-yl)butanoic acid] | 0.6 nM | 6 nM |
